The values that follow come from ChEMBL document CHEMBL5728881, “Substituted 6-azabenzimidazole compounds” (2021).

By IC50 is commonly meant the concentration that inhibits the measured activity by half.

Each structure is given as a SMILES string.

The target in this assay is Mitogen-activated protein kinase kinase kinase kinase 1 (Homo sapiens, UniProt Q92918). The assay is described as follows: TBHPK1 IC50 Assay: Ten nanoliters of test compounds dissolved in DMSO at various concentrations were dispensed into a 384-well ProxiPlate (PerkinElmer #6008289). Five microliters of a solution of recombinant HPK1 diluted in HPK1 kinase assay buffer (50 mM BES [N,N-Bis(2-hydroxyethyl)-2-aminoethanesulfonic acid], pH 7.0; 10 mM magnesium chloride; 0.01% Triton X-100; 1 mM dithiothreitol; 0.01% bovine serum albumin; 0.1 mM sodium orthovanadate) was added to the compound-containing plate and was incubated for 15 minutes at 25° C. Five microliters of a mixture of ATP (Sigma-Aldrich #A6559) and peptide substrate STK S1 (Cisbio #61ST1BLC) diluted in HPK1 kinase assay buffer was then added to start the reaction. Final concentrations were 0.15 nM for HPK1, 10 μM for ATP, and 1 μM for the STK S1 peptide substrate. The reaction mixture was incubated at 25° C. for 3 hours and was stopped with the addition of 10 μl of an EDTA (Ethylenediaminetetraacetic acid)-containing detection buffer (Cisbio #62SDBRDF) supplemented with Europium cryptate-labeled anti-phospho-serine/threonine antibodies (Cisbio #62ST1PEJ) and XL665-labeled streptavidin (Cisbio #610SAXLG). The mixture was incubated for 16 hours at room temperature and peptide phosphorylation was measured by time-resolved fluorescence energy transfer (665 nm/620 nm) on an Envision plate reader (PerkinElmer).
Chain of Mitogen-activated protein kinase kinase kinase kinase 1 (Q92918 whole entry): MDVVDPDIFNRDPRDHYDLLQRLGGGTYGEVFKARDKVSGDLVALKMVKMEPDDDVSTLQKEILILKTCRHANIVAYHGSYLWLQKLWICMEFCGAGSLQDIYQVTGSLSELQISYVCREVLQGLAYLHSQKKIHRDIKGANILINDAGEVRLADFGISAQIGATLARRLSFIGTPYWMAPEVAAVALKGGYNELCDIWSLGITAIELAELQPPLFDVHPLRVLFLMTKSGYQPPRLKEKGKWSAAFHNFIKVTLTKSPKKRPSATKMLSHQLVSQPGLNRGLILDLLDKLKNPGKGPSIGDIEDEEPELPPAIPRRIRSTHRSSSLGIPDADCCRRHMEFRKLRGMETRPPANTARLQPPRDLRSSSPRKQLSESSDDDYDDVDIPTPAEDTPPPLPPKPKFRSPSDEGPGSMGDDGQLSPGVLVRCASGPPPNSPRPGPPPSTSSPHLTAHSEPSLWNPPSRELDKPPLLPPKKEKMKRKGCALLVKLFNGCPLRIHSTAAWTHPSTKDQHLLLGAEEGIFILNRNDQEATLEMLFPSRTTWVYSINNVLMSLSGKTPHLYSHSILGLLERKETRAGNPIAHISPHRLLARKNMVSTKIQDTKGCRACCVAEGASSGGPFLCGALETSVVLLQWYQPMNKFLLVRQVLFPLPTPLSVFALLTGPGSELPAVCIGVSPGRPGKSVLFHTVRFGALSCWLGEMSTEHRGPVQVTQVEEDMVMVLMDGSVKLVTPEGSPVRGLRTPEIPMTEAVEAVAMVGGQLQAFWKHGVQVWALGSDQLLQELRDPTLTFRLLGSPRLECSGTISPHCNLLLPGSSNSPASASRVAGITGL

`CC(C)n1cnc2cc(-c3cnc4c(c3)N([C@H]3C[C@](C)(N5CCC6CC6C5)C3)C(=O)C4(C)C)nc(Nc3cc(C(=O)NC4(CF)CC4)c(Cl)c(F)c3F)c21` (some centres not stated): the IC50 was determined as 0.09 nM.
For `CNC(=O)c1cc(Nc2nc(-c3ccc4c(c3)N([C@H]3C[C@@H](N5CC[C@H](C(F)F)C5)C3)C(=O)C4(C)C)cc3ncn(C(C)C)c23)ccc1C` the value was 0.2 nM.
